Among the data in publication PMC8698333 (Biomedicines, 2021) are EC50 values, retold here.

No end group written: not given here.

One assay deals with T1, hKOR with Gα3 subunit (Homo sapiens, UniProt P41145).
T1 construct: alpha7 nicotinic receptor signal peptide (N); expressed in transfected cells; host or cells: HEK293, transient
As to the kind of experiment: TRUPATH (BRET) G-protein dissociation, Gα3 subunit. As to conditions: mean ± SEM. In kind it is cell-based. On the technique in general: BRET reads energy transfer from a luciferase to a nearby fluorophore.

The target of assay [1] is T2, hKOR (β-arrestin recruitment) (Homo sapiens, UniProt P41145).
T2 construct: tTA (Tango cassette); expressed in transfected cells; host or cells: HEK293, transient
T2 sequence (P41145 whole entry): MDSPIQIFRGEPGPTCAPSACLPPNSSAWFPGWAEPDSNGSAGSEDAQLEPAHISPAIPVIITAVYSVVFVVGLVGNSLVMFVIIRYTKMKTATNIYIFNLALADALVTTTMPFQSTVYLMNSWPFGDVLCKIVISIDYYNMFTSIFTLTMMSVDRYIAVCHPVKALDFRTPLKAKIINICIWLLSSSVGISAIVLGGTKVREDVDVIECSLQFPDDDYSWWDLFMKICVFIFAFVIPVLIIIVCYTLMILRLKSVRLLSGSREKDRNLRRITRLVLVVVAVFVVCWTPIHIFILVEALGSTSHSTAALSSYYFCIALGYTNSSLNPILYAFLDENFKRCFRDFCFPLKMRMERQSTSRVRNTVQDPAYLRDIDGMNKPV
T2 sequence (P32121 whole entry partner): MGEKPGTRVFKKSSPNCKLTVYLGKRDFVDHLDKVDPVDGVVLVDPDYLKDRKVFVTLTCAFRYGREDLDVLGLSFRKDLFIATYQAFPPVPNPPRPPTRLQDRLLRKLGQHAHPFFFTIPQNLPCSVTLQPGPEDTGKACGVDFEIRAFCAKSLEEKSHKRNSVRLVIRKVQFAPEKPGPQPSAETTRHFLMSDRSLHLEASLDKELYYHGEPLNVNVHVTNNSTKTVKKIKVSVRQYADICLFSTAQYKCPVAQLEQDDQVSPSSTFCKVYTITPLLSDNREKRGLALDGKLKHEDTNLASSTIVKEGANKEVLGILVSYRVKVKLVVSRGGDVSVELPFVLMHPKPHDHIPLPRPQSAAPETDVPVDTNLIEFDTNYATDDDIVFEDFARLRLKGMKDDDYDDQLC
As to the kind of experiment: PRESTO-Tango β-arrestin recruitment assay. In kind it is cell-based. To be noted: SEM. In general terms: Arrestin recruitment assays detect the binding of arrestin to an activated receptor.

Assay [2] has as its target T3, human KOR receptors (hKOR) (Homo sapiens, UniProt P41145).
T3 construct: expressed in transfected cells
The assay can be described thus: [35S]GTPγS functional assay on hKOR-CHO cell membranes. In kind it is biochemical. To be noted: SEM.
Procedure: CHO cells stably transfected with human KOR receptors (hKOR-CHO) were courtesy of Prof. Liu-Chen (Temple University, Philadelphia, PA, USA). Cells were grown in Gibco™ Dulbecco’s Minimal Essential Medium (DMEM) supplemented with 10% FBS, Glutamax (100 μg/mL), penicillin/ streptomycin (100 μg/mL) and geneticin (G418, 400 μg/mL). […] Cell cultures were maintained in a Heracell™ 150i CO2 incubator at 37 °C and 5.0% CO2.
Functional assays were conducted on hKOR-CHO cell membranes. Membranes were prepared in 50 mM Tris-HCl buffer pH 7.7. Cells were harvested by scraping the plates with a rubber policeman and were then centrifuged at 500× g for 10 min. The cell pellet was resuspended in Tris-HCl, homogenized with a Dounce homogenizer and centrifuged at 27,000× g for 15 min. […] The protein concentration of the homogenate was determined by Biuret reaction (RotiQuant Universal, Carl Roth) and stored at −70 °C until use.
To perform the GTPγS assay, membrane homogenates (10 μg/reaction tube) were diluted in HEPES buffer (20 mM) together with 10 μM GDP and 0.05 nM [^35S]GTPγS (Perkin Elmer, MA, USA). […] Non-specific binding was determined using 10 μM unlabeled GTPγS (Sigma-Aldrich, Vienna, Austria). Samples were filtered over glass fiber filters (GF/B Whatman) and the bound radioactivity was measured by liquid scintillation counting as counts per minute (CPM).

In another assay the target is T4, hKOR with Gα1 subunit (Homo sapiens, UniProt P41145).
T4 construct: alpha7 nicotinic receptor signal peptide (N); expressed in transfected cells; host or cells: HEK293, transient
T4 sequence (P16520 whole entry): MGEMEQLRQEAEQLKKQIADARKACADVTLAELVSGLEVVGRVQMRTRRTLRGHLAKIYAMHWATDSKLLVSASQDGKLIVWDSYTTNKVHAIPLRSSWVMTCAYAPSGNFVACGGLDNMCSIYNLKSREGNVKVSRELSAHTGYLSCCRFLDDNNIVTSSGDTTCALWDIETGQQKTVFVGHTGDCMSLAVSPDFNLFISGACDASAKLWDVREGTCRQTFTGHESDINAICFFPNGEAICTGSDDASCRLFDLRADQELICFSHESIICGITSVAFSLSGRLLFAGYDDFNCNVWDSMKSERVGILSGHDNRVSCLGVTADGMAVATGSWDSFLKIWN
T4 sequence (P63096 whole entry, further chain): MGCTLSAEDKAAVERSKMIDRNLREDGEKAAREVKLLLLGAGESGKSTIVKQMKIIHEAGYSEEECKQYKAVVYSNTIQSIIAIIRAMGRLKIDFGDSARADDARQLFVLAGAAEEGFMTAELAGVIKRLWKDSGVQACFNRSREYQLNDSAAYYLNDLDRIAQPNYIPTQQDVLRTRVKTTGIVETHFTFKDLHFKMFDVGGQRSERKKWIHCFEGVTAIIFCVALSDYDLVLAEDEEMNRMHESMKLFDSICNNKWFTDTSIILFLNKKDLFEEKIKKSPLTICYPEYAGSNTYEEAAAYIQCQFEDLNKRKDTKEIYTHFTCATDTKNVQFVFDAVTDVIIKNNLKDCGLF
T4 sequence (P41145 whole entry): as the sequence (P41145 whole entry) above
T4 sequence (O14610 1-66, further chain): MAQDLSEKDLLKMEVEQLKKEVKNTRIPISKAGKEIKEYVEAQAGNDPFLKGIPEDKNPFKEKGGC
As to the kind of experiment: TRUPATH (BRET) G-protein dissociation, Gα1 subunit. In kind it is cell-based. As to conditions: SEM.

A further assay deals with T5, hKOR with Gα2 subunit (Homo sapiens, UniProt P41145).
T5 construct: alpha7 nicotinic receptor signal peptide (N); expressed in transfected cells; host or cells: HEK293, transient
T5 sequence (P41145 whole entry): as the sequence (P41145 whole entry) above
T5 sequence (P04899 whole entry partner): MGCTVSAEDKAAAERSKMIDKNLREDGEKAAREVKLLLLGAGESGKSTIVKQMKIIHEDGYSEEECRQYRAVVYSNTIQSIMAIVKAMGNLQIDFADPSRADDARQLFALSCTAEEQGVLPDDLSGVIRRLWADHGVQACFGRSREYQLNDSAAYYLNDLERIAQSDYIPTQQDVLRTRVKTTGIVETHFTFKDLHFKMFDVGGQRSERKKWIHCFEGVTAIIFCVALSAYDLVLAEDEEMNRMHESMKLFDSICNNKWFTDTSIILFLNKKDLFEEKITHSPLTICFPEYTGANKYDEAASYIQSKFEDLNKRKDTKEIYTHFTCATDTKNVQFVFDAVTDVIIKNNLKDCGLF
T5 sequence (P16520 whole entry partner): as the sequence (P16520 whole entry) above
T5 sequence (Q9UK08 1-67 partner limits assumed): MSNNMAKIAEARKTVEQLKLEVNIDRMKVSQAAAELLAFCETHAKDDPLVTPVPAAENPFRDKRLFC
As to the kind of experiment: TRUPATH (BRET) G-protein dissociation, Gα2 subunit. In kind it is cell-based. To be noted: SEM.

Another assay deals with hKOR with GαoA subunit (Homo sapiens, UniProt P41145). The assay can be described thus: cell-based. As to conditions: SEM.
Chain of hKOR with GαoA subunit (P16520 whole entry): as the sequence (P16520 whole entry) above
Chain of hKOR with GαoA subunit (P41145 whole entry): as the sequence (P41145 whole entry) above
Chain of hKOR with GαoA subunit (P09471 whole entry, further chain): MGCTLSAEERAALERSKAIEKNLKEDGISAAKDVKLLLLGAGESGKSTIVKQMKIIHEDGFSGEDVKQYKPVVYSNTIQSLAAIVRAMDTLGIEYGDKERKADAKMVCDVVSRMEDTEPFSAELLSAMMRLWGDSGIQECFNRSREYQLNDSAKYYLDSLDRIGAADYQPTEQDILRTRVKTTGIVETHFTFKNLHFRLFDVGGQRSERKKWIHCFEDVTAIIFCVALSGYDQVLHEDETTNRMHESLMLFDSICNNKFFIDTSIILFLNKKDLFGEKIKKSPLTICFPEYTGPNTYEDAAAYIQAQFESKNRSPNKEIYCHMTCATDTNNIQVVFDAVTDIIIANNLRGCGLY
Chain of hKOR with GαoA subunit (Q9UK08 1-67, further chain): as the sequence (Q9UK08 1-67 partner limits assumed) above
The target in the next assay is T6, hKOR with GαoB subunit (Homo sapiens, UniProt P41145).
T6 construct: alpha7 nicotinic receptor signal peptide (N); expressed in transfected cells; host or cells: HEK293, transient
T6 sequence (P41145 whole entry): as the sequence (P41145 whole entry) above
T6 sequence (P09471 1-354 isoform P09471-2 partner): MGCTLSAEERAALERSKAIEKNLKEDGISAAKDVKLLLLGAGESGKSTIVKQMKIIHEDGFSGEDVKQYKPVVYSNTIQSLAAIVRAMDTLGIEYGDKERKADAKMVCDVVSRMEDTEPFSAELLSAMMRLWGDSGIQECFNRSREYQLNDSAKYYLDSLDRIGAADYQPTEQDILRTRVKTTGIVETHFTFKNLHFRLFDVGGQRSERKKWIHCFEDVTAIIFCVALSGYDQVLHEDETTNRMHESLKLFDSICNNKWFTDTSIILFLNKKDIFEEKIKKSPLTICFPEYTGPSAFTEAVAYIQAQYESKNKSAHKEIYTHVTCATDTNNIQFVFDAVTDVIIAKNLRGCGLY
T6 sequence (P16520 whole entry partner): as the sequence (P16520 whole entry) above
T6 sequence (Q9UK08 1-67 partner limits assumed): as the sequence (Q9UK08 1-67 partner limits assumed) above
The assay can be described thus: TRUPATH (BRET) G-protein dissociation, GαoB subunit. In kind it is cell-based. To be noted: SEM.

Another assay concerns the target T7, hKOR with GαZ subunit (Homo sapiens, UniProt P41145).
T7 construct: alpha7 nicotinic receptor signal peptide (N); expressed in transfected cells; host or cells: HEK293, transient
As to the kind of experiment: TRUPATH (BRET) G-protein dissociation, GαZ subunit. In kind it is cell-based. As to conditions: SEM.

Setting [3] is: EC50, TRUPATH α3 (#, same cell batch), HEK293 with hKOR and Gα3, signal bias series marked #, performed on the same cell batch, n = 9.

T1 sequence (P41145 whole entry): as the sequence (P41145 whole entry) above
T1 sequence (P08754 whole entry partner): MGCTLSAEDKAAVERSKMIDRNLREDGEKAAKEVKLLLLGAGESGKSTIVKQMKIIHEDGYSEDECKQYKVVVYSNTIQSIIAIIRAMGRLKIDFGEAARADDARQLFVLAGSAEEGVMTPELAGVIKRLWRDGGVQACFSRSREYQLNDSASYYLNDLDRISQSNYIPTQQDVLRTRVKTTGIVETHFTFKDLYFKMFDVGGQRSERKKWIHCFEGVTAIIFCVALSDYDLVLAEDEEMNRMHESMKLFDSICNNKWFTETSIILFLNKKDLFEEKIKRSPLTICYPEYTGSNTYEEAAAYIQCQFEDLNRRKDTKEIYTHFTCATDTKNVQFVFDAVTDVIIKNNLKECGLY
T1 sequence (P16520 whole entry partner): as the sequence (P16520 whole entry) above
T1 sequence (O14610 1-66 partner limits assumed): as the sequence (O14610 1-66, further chain) above
T7 sequence (P41145 whole entry): as the sequence (P41145 whole entry) above
T7 sequence (P19086 whole entry partner): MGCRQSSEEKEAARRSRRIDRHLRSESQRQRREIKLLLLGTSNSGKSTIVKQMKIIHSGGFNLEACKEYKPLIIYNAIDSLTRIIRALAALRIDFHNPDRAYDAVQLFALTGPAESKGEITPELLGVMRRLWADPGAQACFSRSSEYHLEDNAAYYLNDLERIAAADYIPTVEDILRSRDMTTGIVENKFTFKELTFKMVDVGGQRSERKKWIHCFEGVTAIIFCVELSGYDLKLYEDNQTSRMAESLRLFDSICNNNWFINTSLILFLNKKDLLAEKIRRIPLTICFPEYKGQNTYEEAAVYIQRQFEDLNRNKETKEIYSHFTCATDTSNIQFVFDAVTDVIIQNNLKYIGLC
T7 sequence (P16520 whole entry partner): as the sequence (P16520 whole entry) above
T7 sequence (P63211 1-71 partner limits assumed): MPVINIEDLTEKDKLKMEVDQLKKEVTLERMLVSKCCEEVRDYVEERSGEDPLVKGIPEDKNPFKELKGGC
T3 sequence (P41145 whole entry): as the sequence (P41145 whole entry) above

A word on the EC50: it is the concentration needed to bring the measured effect to its halfway point. YGGFLRRICPKLKWDNQ [DynA_R9C]: the EC50 at hKOR with Gα3 subunit (setting [3]) was determined as 24 ± 9 nM; in assay [1] it was 88 ± 32 nM.
Turning to YGGFLWRIRPKLKWDNQ [DynA_R6W], the half-maximal effective concentration (EC50) in assay [2] worked out at 105 ± 23 nM; on hKOR with Gα1 subunit, 211 ± 36 nM; at hKOR with Gα2 subunit it was 78 ± 42 nM; at hKOR with Gα3 subunit (setting [3]), 133 ± 75 nM; at hKOR with Gα3 subunit (EC50, TRUPATH α3, HEK293 transiently transfected with hKOR and Gα3, 30 min, n = 6 (transducerome series)), 161 ± 51 nM; at hKOR with GαoA subunit, 133 ± 80 nM. Moreover, the values for the EC50 (at hKOR with GαoB subunit; at hKOR with GαZ subunit; in assay [1]) were 62 ± 15 nM, 27 ± 9 nM and 670 ± 215 nM, respectively.
Take YGGFSRRIRPKLKWDNQ [DynA_L5S]: the values for the concentration giving a half-maximal response (EC50) (on hKOR with Gα3 subunit (setting [3]); in assay [1]) were 78 ± 37 nM and 236 ± 65 nM, respectively.
